Source: ChEMBL document CHEMBL2062423 (ACS Med Chem Lett, 2012)
The source made the active and inactive calls. The calls are words filed in the database; no cut-off is given here.

Assays:
[1] = target: Sodium-dependent dopamine transporter (Homo sapiens, UniProt Q01959); assay: Displacement of [3H]WIN-35,428 from human DAT expressed in mouse N2A cells after 15 mins by liquid scintillation counting; assay type: cell-based
[2] = target: Sodium-dependent dopamine transporter (Rattus norvegicus) (UniProt P23977); assay: Binding affinity to DAT in rat striatal membrane at 10 nM incubated for 1.5 hrs prior to irradiation measured after 5 mins by photoaffinity labeling-based autoradiographic analysis in presence of (-)-cocaine; assay type: cell membranes; details: Striatum, tested as the 125I-labelled form
Sodium-dependent dopamine transporter (Rattus norvegicus), sequence (P23977 whole entry): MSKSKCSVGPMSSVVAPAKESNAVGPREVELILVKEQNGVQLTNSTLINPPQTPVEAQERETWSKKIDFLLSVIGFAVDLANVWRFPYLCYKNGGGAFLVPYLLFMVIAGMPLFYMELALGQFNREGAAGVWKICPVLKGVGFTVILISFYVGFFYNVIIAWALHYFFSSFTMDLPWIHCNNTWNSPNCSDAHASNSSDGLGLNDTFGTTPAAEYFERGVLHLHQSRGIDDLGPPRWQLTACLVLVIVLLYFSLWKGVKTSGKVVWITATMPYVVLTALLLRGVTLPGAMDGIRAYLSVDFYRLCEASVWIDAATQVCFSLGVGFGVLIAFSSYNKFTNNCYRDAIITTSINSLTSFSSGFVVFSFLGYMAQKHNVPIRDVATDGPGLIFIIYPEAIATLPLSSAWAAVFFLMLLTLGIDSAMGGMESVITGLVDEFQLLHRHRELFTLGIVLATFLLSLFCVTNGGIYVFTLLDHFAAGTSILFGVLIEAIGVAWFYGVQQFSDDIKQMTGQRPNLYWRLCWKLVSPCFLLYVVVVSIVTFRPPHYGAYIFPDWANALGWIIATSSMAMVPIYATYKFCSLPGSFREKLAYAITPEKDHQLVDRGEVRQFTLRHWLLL

[3] = target: Sodium-dependent dopamine transporter (Rattus norvegicus) (UniProt P23977); assay: Binding affinity to DAT in rat striatal membrane at 10 nM incubated for 1.5 hrs prior to irradiation measured after 5 mins by photoaffinity labeling-based autoradiographic analysis; assay type: cell membranes; details: Striatum, tested as the 125I-labelled form
[4] = target: Sodium-dependent dopamine transporter (Rattus norvegicus) (UniProt P23977); assay: Binding affinity to DAT in rat striatal membrane at 10 nM incubated for 1.5 hrs prior to irradiation measured after 5 mins by photoaffinity labeling-based autoradiographic analysis in presence of D-methylphenidate; assay type: cell membranes; details: Striatum, tested as the 125I-labelled form

Sodium-dependent dopamine transporter, sequence (Q01959 whole entry): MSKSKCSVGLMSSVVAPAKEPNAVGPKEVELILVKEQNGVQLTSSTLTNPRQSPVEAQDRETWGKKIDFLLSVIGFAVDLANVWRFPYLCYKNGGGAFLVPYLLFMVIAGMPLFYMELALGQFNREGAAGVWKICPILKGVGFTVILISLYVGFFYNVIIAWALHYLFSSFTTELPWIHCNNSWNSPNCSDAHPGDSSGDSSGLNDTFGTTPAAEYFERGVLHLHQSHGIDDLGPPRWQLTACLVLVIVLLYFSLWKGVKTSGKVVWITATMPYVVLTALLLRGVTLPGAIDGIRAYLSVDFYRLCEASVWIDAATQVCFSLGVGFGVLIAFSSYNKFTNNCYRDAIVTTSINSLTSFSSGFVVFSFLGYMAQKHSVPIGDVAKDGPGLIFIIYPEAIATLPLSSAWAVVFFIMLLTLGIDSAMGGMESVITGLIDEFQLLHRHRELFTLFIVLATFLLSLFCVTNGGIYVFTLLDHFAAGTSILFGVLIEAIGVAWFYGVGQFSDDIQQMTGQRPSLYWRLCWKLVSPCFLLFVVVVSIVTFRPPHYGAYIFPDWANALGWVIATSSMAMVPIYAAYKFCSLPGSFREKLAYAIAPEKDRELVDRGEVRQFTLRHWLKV

Structure (SMILES)	Ki [1] [nM]	Activity [2]	Activity [3]	Activity [4]
COC(=O)[C@H](c1ccc(Cl)c(Cl)c1)[C@H]1CCCCN1 (racemic)	1.8			
COC(=O)[C@H](c1ccc(N)cc1)[C@H]1CCCCN1 (racemic)	6.3			
COC(=O)[C@H](c1ccc([N+](=O)[O-])cc1)[C@H]1CCCCN1 (racemic)	77			
COC(=O)[C@H](c1ccc(N=[N+]=[N-])c(I)c1)[C@H]1CCCCN1 (racemic)	4	inactive	Active	inactive
COC(=O)[C@H](c1ccc(N)c(I)c1)[C@H]1CCCCN1 (racemic)	9.1			
COC(=O)[C@H](c1ccc(N=[N+]=[N-])cc1)[C@H]1CCCCN1 (racemic)	35			
